The test system of experiment [1] is human large intestine cancer cell line (HCT-116). Kind of experiment: Human large intestine cancer (HCT-116) cell growth inhibition test. In kind it is cell-based. Conditions: 72 h, HCT-116, culture for 3 days, sulforhodamine B absorbance. The method, boiled down:
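HCT-116 cells seeded at 1.0×10^3 cells/well in McCoy's 5a with 10% FBS, then exposed to compound (0.1% DMSO final) for 3 days. Growth measured by sulforhodamine B absorbance; IC50 derived from concentration-inhibition data.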

Experiment [2] concerns mouse imiquimod-induced psoriasis model. Kind of experiment: Ear thickening suppression test using mouse imiquimod-induced psoriasis model. In kind it is in vivo. Conditions: topical, 120 h, application of a 0.01% methanol solution for 4 days, thickness measured on day 5, BALB/c mice, read-out: rate of inhibition of increase in right auricle thickness. As for the experimental part:
Ear Thickening Suppression Test Using Mouse Imiquimod-Induced Psoriasis Model
An imiquimod-induced psoriasis model test was carried out by modifying the method of Leslie van der Fits et al. (J. Immunol. 182, 5836 (2009)). BALB/c mice were used (female, supplied by Charles River Laboratories Japan, Inc.) as laboratory animals. On the start day of the test, the thicknesses of the right auricles of the mice were measured with a thickness gauge (model SMD-565J manufactured by TECLOCK Corp.). A test compound solution or only a solvent was applied or orally administered, and after 60 minutes, 5 mg of imiquimod (Beselna Cream 5% manufactured by Mochida Pharmaceutical Co., Ltd.) was applied to the insides of the right auricles. The test compound solution or solvent administration and the imiquimod application were carried out for 4 days, and the thicknesses of the right auricles were measured again on day 5. When increase in the thicknesses of the right auricles of the solvent-administered group on day 5 was defined as 100%, the rate of inhibition of increase (%) at each dose of the test compound was calculated.

The target in the next experiment is T1, CDK2 (Homo sapiens, UniProt P24941).
T1 construct: purchased Invitrogen Corp. PV3267
As to the kind of experiment: CDK2 enzyme inhibition test. In kind it is biochemical. Conditions: Ki=IC50/(1+S/Km); 33P bound to MBP, [γ-33P]ATP, 30° C. for 20 minutes; read-out: Ki value of CDK2 inhibitory activity. As for the experimental part:
CDK2 Enzyme Inhibition Test
The preparation of a buffer solution was performed by mixing a HEPES buffer solution (pH 7.4), DTT, Triton X-100, and MgCl2. A 500 μM [γ-^33P]ATP solution was used by diluting a 10 mM ATP solution and a commercially available [γ-^33P]ATP solution (manufactured by PerkinElmer, Inc., Code No. NEG-302H) with the buffer solution. A CDK2 solution was used by diluting commercially available CDK2 (manufactured by Invitrogen Corp., Catalog No. PV3267) with the buffer solution. A substrate solution was used by diluting MBP with the buffer solution. As for the preparation of a reaction solution, the buffer solution, the 500 μM [γ-^33P]ATP solution, the CDK2 solution, and the substrate solution were mixed at 4° C. to obtain a reaction solution.
CDK2 enzyme reaction was performed by adding 5 μL of a test compound solution prepared with 10% DMSO/90% injectable distilled water, and 45 μL of the reaction solution in a 1.5 mL microtube at 4° C. and reacting in the microtube at 30° C. for 20 minutes in a water bath incubator. After the reaction, a 10% aqueous TCA solution was added to each microtube while cooled to 4° C., and mixed to terminate the reaction. The resultant was left standing at 4° C. for 10 minutes and then centrifuged in a centrifuge, and the supernatant was discarded. Next, a 2% aqueous TCA solution was added, mixed thereto, and then centrifuged in a centrifuge, and the supernatant was discarded. This washing operation was performed twice. After the washing, precipitates were dissolved in a 1 N aqueous NaOH solution, and the radioactivity was measured with a liquid scintillation counter.
The calculation of the inhibitory activity of the test compound against CDK2 was performed as a test compound concentration inhibiting 50% of the amount of ^33P bound to MBP (IC50 value) by using EXSUS (version 8.0.0 or version 8.0.1, manufactured by CAC Exicare Corp.).
The calculation of a Ki value was performed according to the following calculation expression. S means the concentration of ATP contained in the reaction solution, and Km means a Michaelis-Menten constant. Ki=IC50/(1+S/Km)

The structures appear in SMILES notation.

A word on the IC50: it is the concentration needed to halve the response being measured. In experiment [1], `CC[Si](C)(C)C1(C(=O)Nc2n[nH]c3c2CN(C(=O)[C@H](OC)c2ccccc2)C3(C)C)CCC1` [IV-1178, (R)-1-(Ethyldimethylsilyl)-N-[5-(2-methoxy-2-phenylacetyl)-6,6-dimethyl-1,4,5,6-tetrahydropyrrolo[3,4-c]pyrazol-3-yl] cyclobutanecarboxamide] showed an IC50 of no more than 500 nM. For the same molecule, in experiment [2], the inhibition in vivo at 0.01 % was no less than 50%. Broadly, the Ki is a measure of affinity in units of concentration, obtained from inhibition or displacement. On to `CC(C)[C@@H](CO)NC(=O)N1Cc2c(NC(=O)C3([Si](C)(C)C)CCC3)n[nH]c2C1(C)C` [IV-475, (S)—N-(1-Hydroxy-3-methylbutan-2-yl)-6,6-dimethyl-3-[1-(trimethylsilyl)cyclobutanecarboxamido]-4,6-dihydropyrrolo[3,4-c]pyrazole-5(1H)-carboxamide], for which the Ki at CDK2 was no less than 1000 nM. The molecule also registered an IC50 in experiment [1] of no more than 500 nM. Take `CC[Si](C)(C)C1(C(=O)Nc2n[nH]c3c2CN(C(=O)N[C@H](CO)c2ccccc2)C3(C)C)CCC1` [IV-117, (S)-3-[1-(Ethyldimethylsilyl)cyclobutanecarboxamido]-N-(2-hydroxy-1-phenylethyl)-6,6-dimethyl-4,6-dihydropyrrolo[3,4-c]pyrazole-5(1H)-carboxamide]: at CDK2, the Ki was no less than 1000 nM. In experiment [1], this molecule returned an IC50 of no more than 500 nM. For `CC1(C)c2[nH]nc(NC(=O)C3([Si](C)(C)C)CCC3)c2CN1C(=O)NCC(O)c1ccccc1` (stereo not shown) [IV-450, N-(2-Hydroxy-2-phenylethyl)-6,6-dimethyl-3-[1-(trimethylsilyl)cyclobutanecarboxamido]-4,6-dihydropyrrolo[3,4-c]pyrazole-5(1H)-carboxamide] the same measures were no less than 1000 nM and no more than 500 nM. Regarding `CC1(C)c2[nH]nc(NC(=O)C3([Si](C)(C)C)CCC3)c2CN1C(=O)C(CO)c1ccccc1` (stereo not shown) [IV-632, N-[5-(3-Hydroxy-2-phenylpropanoyl)-6,6-dimethyl-1,4,5,6-tetrahydropyrrolo[3,4-c]pyrazol-3-yl]-1-(trimethylsilyl)cyclobutanecarboxamide], the Ki at CDK2 is no less than 1000 nM. For the same molecule, in experiment [1], the IC50 is no more than 500 nM. Take `CC1(C)c2[nH]nc(NC(=O)C3([Si](C)(C)C)CCC3)c2CN1C(=O)[C@H](OC1CC1)c1ccccc1` [IV-1208, (R)—N-[5-(2-Cyclopropoxy-2-phenylacetyl)-6,6-dimethyl-1,4,5,6-tetrahydropyrrolo[3,4-c]pyrazol-3-yl]-1-(trimethylsilyl)cyclobutanecarboxamide]: the IC50 in experiment [1] is no more than 500 nM. Also, the inhibition in vivo at 0.01 % in experiment [2] was no less than 50%. Turning to `CC1(C)c2[nH]nc(NC(=O)C3([Si](C)(C)C)CCC3)c2CN1C(=O)NCCO` [IV-438, N-(2-Hydroxyethyl)-6,6-dimethyl-3-[1-(trimethylsilyl)cyclobutanecarboxamido]-4,6-dihydropyrrolo[3,4-c]pyrazole-5(1H)-carboxamide], the Ki on CDK2 was no less than 1000 nM. For the same molecule, in experiment [1], the IC50 is no more than 500 nM. `CO[C@@H](C(=O)N1Cc2c(NC(=O)C3([Si](C)(C)C)CCC3)n[nH]c2C1(C)C)c1ccccc1` [IV-1175, (R)—N-[5-(2-Methoxy-2-phenylacetyl)-6,6-dimethyl-1,4,5,6-tetrahydropyrrolo[3,4-c]pyrazol-3-yl]-1-(trimethylsilyl)cyclobutanecarboxamide] displayed an IC50 in experiment [1] of no more than 500 nM. The inhibition in vivo at 0.01 % in experiment [2] was no less than 50%.

Consider `CC1(C)c2[nH]nc(NC(=O)C3([Si](C)(C)C)CCC3)c2CN1C(=O)N[C@H](CCCO)c1ccccc1` [IV-283, (R)—N-(4-Hydroxy-1-phenylbutyl)-6,6-dimethyl-3-[1-(trimethylsilyl)cyclobutanecarboxamido]-4,6-dihydropyrrolo[3,4-c]pyrazole-5(1H)-carboxamide], for which the Ki on CDK2 was no less than 1000 nM. The same molecule had an IC50 in experiment [1] of no more than 500 nM.

In the case of `CC1(C)c2[nH]nc(NC(=O)C3([Si](C)(C)C)CCC3)c2CN1C(=O)O[C@H](CO)c1ccccc1` [IV-2, (S)-2-Hydroxy-1-phenylethyl 6,6-dimethyl-3-[1-(trimethylsilyl)cyclobutanecarboxamido]-4,6-dihydropyrrolo[3,4-c]pyrazole-5(1H)-carboxylate], the Ki at CDK2 is no less than 1000 nM. This molecule came in with an IC50 in experiment [1] of no more than 500 nM. With `C[C@@H](CO)NC(=O)N1Cc2c(NC(=O)C3([Si](C)(C)C)CCC3)n[nH]c2C1(C)C` [IV-455, (S)—N-(1-Hydroxypropan-2-yl)-6,6-dimethyl-3-[1-(trimethylsilyl)cyclobutanecarboxamido]-4,6-dihydropyrrolo[3,4-c]pyrazole-5(1H)-carboxamide], the Ki at CDK2 was no less than 1000 nM.

Consider `CC1(C)c2[nH]nc(NC(=O)C3([Si](C)(C)C)CCC3)c2CN1C(=O)N[C@H](CO)C1CCCCC1` [IV-495, (S)—N-(1-Cyclohexyl-2-hydroxyethyl)-6,6-dimethyl-3-[1-(trimethylsilyl)cyclobutanecarboxamido]-4,6-dihydropyrrolo[3,4-c]pyrazole-5(1H)-carboxamide], for which the Ki on CDK2 is no less than 1000 nM. This molecule came in with an IC50 in experiment [1] of no more than 500 nM.

The molecule `CCOC[C@@H](NC(=O)N1Cc2c(NC(=O)C3([Si](C)(C)C)CCC3)n[nH]c2C1(C)C)c1ccccc1` [IV-139, (S)—N-(2-Ethoxy-1-phenylethyl)-6,6-dimethyl-3-[1-(trimethylsilyl)cyclobutanecarboxamido]-4,6-dihydropyrrolo[3,4-c]pyrazole-5(1H)-carboxamide] gave an IC50 in experiment [1] of no more than 500 nM. As to `CC1(C)c2[nH]nc(NC(=O)C3([Si](C)(C)C)CC3)c2CN1C(=O)N[C@H](CO)c1ccccc1` [III-114, (S)—N-(2-Hydroxy-1-phenylethyl)-6,6-dimethyl-3-[1-(trimethylsilyl)cyclopropanecarboxamido]-4,6-dihydropyrrolo[3,4-c]pyrazole-5(1H)-carboxamide], on CDK2, the Ki was no less than 1000 nM. In experiment [1], the IC50 is no more than 500 nM. For `CN(C(=O)N1Cc2c(NC(=O)C3([Si](C)(C)C)CCC3)n[nH]c2C1(C)C)[C@H](CO)c1ccccc1` [IV-119, (S)—N-(2-Hydroxy-1-phenylethyl)-N,6,6-trimethyl-3-[1-(trimethylsilyl)cyclobutanecarboxamido]-4,6-dihydropyrrolo[3,4-c]pyrazole-5(1H)-carboxamide] the same measures were no less than 1000 nM and no more than 500 nM. For `CC1(C)c2[nH]nc(NC(=O)C(C)(C)[Si](C)(C)C)c2CN1C(=O)N[C@H](CO)c1ccccc1` [II-114, (S)—N-(2-Hydroxy-1-phenylethyl)-6,6-dimethyl-3-[2-methyl-2-(trimethylsilyl)propanamido]-4,6-dihydropyrrolo[3,4-c]pyrazole-5(1H)-carboxamide] the same measures were no less than 1000 nM and no more than 500 nM. For `CC1(C)c2[nH]nc(NC(=O)C3([Si](C)(C)C)CCC3)c2CN1C(=O)N[C@H](CCCCO)c1ccccc1` [IV-291, (R)—N-(5-Hydroxy-1-phenylpentyl)-6,6-dimethyl-3-[1-(trimethylsilyl)cyclobutanecarboxamido]-4,6-dihydropyrrolo[3,4-c]pyrazole-5(1H)-carboxamide] the same measures were no less than 1000 nM and no more than 500 nM. Turning to `CC(C)(O)[C@@H](NC(=O)N1Cc2c(NC(=O)C3([Si](C)(C)C)CCC3)n[nH]c2C1(C)C)c1ccccc1` [IV-171, (S)—N-(2-Hydroxy-2-methyl-1-phenylpropyl)-6,6-dimethyl-3-[1-(trimethylsilyl)cyclobutanecarboxamido]-4,6-dihydropyrrolo[3,4-c]pyrazole-5(1H)-carboxamide], the Ki at CDK2 was no less than 1000 nM. Moreover, the IC50 in experiment [1] is no more than 500 nM.

These data come from patent US10131679B2, “Substituted dihydropyrrolopyrazole compound” (UBE INDUSTRIES, LTD., priority 2014, dated 2018).
